Measurements taken from PubChem BioAssay AID328 (DTP/NCI, 2004).
Several values for one entry are separate records, joined by “and”; a condition that tells them apart may be missing. Identical values can stand only once. Inconclusive results and toxic doses are left out.

System: BDF1 mice, P388 leukemia ip, median survival T/C
Assay: NCI In Vivo Anticancer Drug Screen. Data for tumor model P388 Leukemia (intraperitoneal) in B6D2F1 (BDF1) mice
Conditions: endpoint: median survival time, higher = longer survival
Procedure, shortened: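 Vehicle-dosed animals serve as the reference; survival of compound-dosed, tumour-implanted mice is divided by it.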

[1] = dose: 100.0 mg/kg/injection, schedule: Q04DX003 (ip), vehicle: Klucel (hydroxypropylcellulose) (HPC)
[2] = dose: 200.0 mg/kg/injection, schedule: Q04DX003 (ip), vehicle: Klucel (hydroxypropylcellulose) (HPC)
[3] = dose: 400.0 mg/kg/injection, schedule: Q04DX003 (ip), vehicle: Klucel (hydroxypropylcellulose) (HPC)
[4] = dose: 50.0 mg/kg/injection, schedule: Q01DX009 (ip), vehicle: saline
[5] = dose: 100.0 mg/kg/injection, schedule: Q01DX009 (ip), vehicle: saline
[6] = dose: 200.0 mg/kg/injection, schedule: Q01DX009 (ip), vehicle: saline
[7] = dose: 100.0 mg/kg/injection, schedule: Q01DX009 (ip), vehicle: saline with Tween-80
[8] = dose: 50.0 mg/kg/injection, schedule: Q01DX009 (ip), vehicle: saline with Tween-80
[9] = dose: 200.0 mg/kg/injection, schedule: Q01DX009 (ip), vehicle: saline with Tween-80
[10] = dose: 100.0 mg/kg/injection, schedule: Q04DX003 (ip), vehicle: saline with Tween-80
[11] = dose: 200.0 mg/kg/injection, schedule: Q04DX003 (ip), vehicle: saline with Tween-80
[12] = dose: 12.5 mg/kg/injection, schedule: Q01DX009 (ip), vehicle: saline with Tween-80
[13] = dose: 25.0 mg/kg/injection, schedule: Q01DX009 (ip), vehicle: saline with Tween-80
[14] = dose: 50.0 mg/kg/injection, schedule: Q01DX005 (ip), vehicle: saline with Tween-80
[15] = dose: 200.0 mg/kg/injection, schedule: Q01DX005 (ip), vehicle: saline with Tween-80
[16] = dose: 25.0 mg/kg/injection, schedule: Q04DX003 (ip), vehicle: saline
[17] = dose: 50.0 mg/kg/injection, schedule: Q04DX003 (ip), vehicle: saline
[18] = dose: 100.0 mg/kg/injection, schedule: Q04DX003 (ip), vehicle: saline
[19] = dose: 200.0 mg/kg/injection, schedule: Q04DX003 (ip), vehicle: saline
[20] = dose: 400.0 mg/kg/injection, schedule: Q04DX003 (ip), vehicle: saline
[21] = dose: 15.0 mg/kg/injection, schedule: Q01DX009 (ip), vehicle: saline with Tween-80
[22] = dose: 30.0 mg/kg/injection, schedule: Q01DX009 (ip), vehicle: saline with Tween-80
[23] = dose: 60.0 mg/kg/injection, schedule: Q01DX009 (ip), vehicle: saline with Tween-80

SMILES: NC(=S)N/N=C/c1ccccc1N
- T/C (dose: 100.0 mg/kg/injection, schedule: Q01DX001 (ip), vehicle: Klucel (hydroxypropylcellulose) (HPC)): 104 % of control
- T/C (dose: 200.0 mg/kg/injection, schedule: Q01DX001 (ip), vehicle: Klucel (hydroxypropylcellulose) (HPC)): 104 % of control
- T/C (dose: 400.0 mg/kg/injection, schedule: Q01DX001 (ip), vehicle: Klucel (hydroxypropylcellulose) (HPC)): 108 % of control

SMILES: CCN(CC)C1=C(N(CC)CC)C(N(CC)CC)=C(N(CC)CC)C1=O.[C-]#[O+].[C-]#[O+].[C-]#[O+].[Fe]
- T/C [1]: 101 % of control
- T/C [2]: 91 % of control
- T/C [3]: 115 % of control

SMILES: CCN(CC)CC(=O)Nc1ccc(Cl)cc1C(O)c1ccccc1 (centres undefined)
- T/C [4]: 103 % of control
- T/C [5]: 97 % of control
- T/C [6]: 100 % of control

SMILES: CCN(CC)c1cc(Cl)c(C=O)cc1[N+](=O)[O-]
- T/C (dose: 100.0 mg/kg/injection, schedule: Q01DX009 (ip), vehicle: Klucel (hydroxypropylcellulose) (HPC)): 95 % of control
- T/C (dose: 200.0 mg/kg/injection, schedule: Q01DX009 (ip), vehicle: Klucel (hydroxypropylcellulose) (HPC)): 104 % of control
- T/C (dose: 400.0 mg/kg/injection, schedule: Q01DX009 (ip), vehicle: Klucel (hydroxypropylcellulose) (HPC)): 95 % of control

SMILES: Nc1ccc2cc(Cl)ccc2c1
- T/C [7]: 90 % of control

SMILES: CNC(=O)c1ccccc1Sc1ccccc1
- T/C [8]: 104 % of control
- T/C [7]: 98 % of control
- T/C [9]: 106 % of control

SMILES: CP12(OC(=O)c3ccccc31)OC(=O)c1ccccc12
- T/C [8]: 91 % of control
- T/C [7]: 91 % of control
- T/C [9]: 96 % of control

SMILES: CCOCCOCCOc1nc(F)c(Cl)cc1Cl
- T/C [10]: 100 % of control
- T/C [11]: 118 % of control

SMILES: [NH2-].[NH2-].[NH2-].[NH2-].[Pt+4]
- T/C [12]: 90 % of control
- T/C [13]: 100 % of control
- T/C [8]: 90 % of control

SMILES: COC(=O)c1cc(=O)nc(N/N=C/c2ccc3c(c2)OCO3)s1
- T/C [14]: 92 % of control
- T/C [15]: 96 % of control

SMILES: C=CCNC(=S)Nc1ccc(N(C)C)cc1
- T/C (dose: 50.0 mg/kg/injection, schedule: Q04DX003 (ip), vehicle: saline with Tween-80): 100 % of control
- T/C [10]: 95 % of control
- T/C [11]: 109 % of control

SMILES: COc1cc2c(cc1OCc1ccccc1)C=CN(C(=O)c1ccccc1)C2C#N (centres undefined)
- T/C (dose: 25.0 mg/kg/injection, schedule: Q01DX009 (ip), vehicle: saline): 105 % of control
- T/C [16]: 103 % of control
- T/C [4]: 92 % of control
- T/C [17]: 100 % of control
- T/C [5]: 93 % of control
- T/C [18]: 97 % of control
- T/C [6]: 90 % of control
- T/C [19]: 103 % of control
- T/C (dose: 400.0 mg/kg/injection, schedule: Q01DX009 (ip), vehicle: saline): 96 % of control
- T/C [20]: 97 % of control

SMILES: COC(=O)CNC(=O)C(CSCc1ccccc1)NC(=O)OCc1ccccc1 (centres undefined)
- T/C [1]: 95 % of control
- T/C [2]: 100 % of control
- T/C [3]: 90 % of control

SMILES: ClCCN(CCCl)c1ccc(C=Nc2ccc(/C=C\c3ccncc3)cc2)cc1
- T/C [12]: 115 % of control
- T/C [13]: 101 % of control
- T/C [8]: 98 % of control
- T/C [7]: 89 % of control

SMILES: N=c1ccc2nc3ccc(N)cc3sc-2c1
- T/C [16]: 100 % of control
- T/C [17]: 109 % of control

SMILES: C#CCSC(=N)N
- T/C (dose: 12.5 mg/kg/injection, schedule: Q01DX009 (ip), vehicle: saline): 100 % of control
- T/C (dose: 33.0 mg/kg/injection, schedule: Q01DX009 (ip), vehicle: saline): 109 % of control and 118 % of control
- T/C (dose: 37.5 mg/kg/injection, schedule: Q04DX003 (ip), vehicle: saline): 109 % of control
- T/C [4]: 100 % of control and 115 % of control
- T/C (dose: 75.0 mg/kg/injection, schedule: Q04DX003 (ip), vehicle: saline): 109 % of control

SMILES: C=C1C(=O)OC2C1C(OC(=O)/C(C)=C/C)CC(O)(CCl)C1C(OC(C)=O)C=C(C)C21O (centres undefined)
- T/C (dose: 5.0 mg/kg/injection, schedule: Q01DX010 (ip), vehicle: carboxymethylcellulose (CMC)): 100 % of control
- T/C (dose: 10.0 mg/kg/injection, schedule: Q01DX010 (ip), vehicle: carboxymethylcellulose (CMC)): 100 % of control
- T/C (dose: 20.0 mg/kg/injection, schedule: Q01DX010 (ip), vehicle: carboxymethylcellulose (CMC)): 100 % of control
- T/C (dose: 25.0 mg/kg/injection, schedule: Q01DX010 (ip), vehicle: saline): 116 % of control
- T/C (dose: 50.0 mg/kg/injection, schedule: Q01DX010 (ip), vehicle: saline): 100 % of control
- T/C (dose: 100.0 mg/kg/injection, schedule: Q01DX010 (ip), vehicle: saline): 155 % of control

SMILES: O=C(N1CCCC1)C(F)(F)C(F)(F)C(F)(F)F
- T/C [8]: 90 % of control
- T/C [7]: 99 % of control

SMILES: CC1CC(C)(C)CC2CC(C(=O)O)(C(=O)O)CC12 (centres undefined)
- T/C (dose: 25.0 mg/kg/injection, schedule: Q04DX003 (ip), vehicle: saline sonified): 110 % of control
- T/C (dose: 50.0 mg/kg/injection, schedule: Q04DX003 (ip), vehicle: saline sonified): 100 % of control
- T/C (dose: 100.0 mg/kg/injection, schedule: Q04DX003 (ip), vehicle: saline sonified): 100 % of control

SMILES: COC1C=CC=CC=C1
- T/C [21]: 113 % of control
- T/C [22]: 100 % of control
- T/C [23]: 113 % of control

SMILES: O=[N+]([O-])c1ccc(SCc2ccccc2)c2c1no[n+]2[O-]
- T/C [21]: 105 % of control
- T/C [22]: 96 % of control
- T/C [23]: 93 % of control

SMILES: CC1(C)OC2(C)CCC1C(O)C2N1CCOCC1 (centres undefined)
- T/C [14]: 106 % of control
- T/C (dose: 100.0 mg/kg/injection, schedule: Q01DX005 (ip), vehicle: saline with Tween-80): 106 % of control
- T/C [15]: 101 % of control

SMILES: CC(=O)NC1(C(=O)O)CSSC1
- T/C (dose: 12.5 mg/kg/injection, schedule: Q01DX005 (ip), vehicle: saline): 107 % of control
- T/C (dose: 25.0 mg/kg/injection, schedule: Q01DX005 (ip), vehicle: saline): 106 % of control
- T/C [16]: 91 % of control
- T/C (dose: 50.0 mg/kg/injection, schedule: Q01DX005 (ip), vehicle: saline): 104 % of control
- T/C [17]: 97 % of control
- T/C (dose: 100.0 mg/kg/injection, schedule: Q01DX005 (ip), vehicle: saline): 100 % of control
- T/C [18]: 118 % of control
- T/C (dose: 200.0 mg/kg/injection, schedule: Q01DX005 (ip), vehicle: saline): 104 % of control
- T/C [19]: 114 % of control
- T/C (dose: 400.0 mg/kg/injection, schedule: Q01DX005 (ip), vehicle: saline): 97 % of control
- T/C [20]: 123 % of control

SMILES: CC(C)=NNC(=O)C1CCN1Cc1ccccc1 (centres undefined)
- T/C (dose: 50.0 mg/kg/injection, schedule: Q01DX001 (ip), vehicle: saline): 102 % of control
- T/C (dose: 100.0 mg/kg/injection, schedule: Q01DX001 (ip), vehicle: saline): 98 % of control
- T/C (dose: 200.0 mg/kg/injection, schedule: Q01DX001 (ip), vehicle: saline): 93 % of control
- T/C (dose: 400.0 mg/kg/injection, schedule: Q01DX001 (ip), vehicle: saline): 102 % of control

SMILES: CCCCCCCCCCCCCCCCOc1ccccc1CNc1cccc(S(=O)(=O)F)c1
- T/C [7]: 95 % of control
- T/C [9]: 95 % of control
- T/C (dose: 400.0 mg/kg/injection, schedule: Q01DX009 (ip), vehicle: saline with Tween-80): 95 % of control

SMILES: Cc1ncc([N+](=O)[O-])n1CCN=[N+]=[N-]
- T/C [10]: 104 % of control
- T/C [11]: 123 % of control

SMILES: CC1CCOS(=O)O1 (centres undefined)
- T/C (dose: 10.0 mg/kg/injection, schedule: Q01DX010 (ip), vehicle: saline): 100 % of control
- T/C (dose: 20.0 mg/kg/injection, schedule: Q01DX010 (ip), vehicle: saline): 95 % of control and 104 % of control
- T/C (dose: 40.0 mg/kg/injection, schedule: Q01DX010 (ip), vehicle: saline): 100 % of control and 104 % of control

SMILES: CN(C)CCCNC1=C(Cl)C(=O)c2ccccc2C1=O
- T/C (dose: 6.25 mg/kg/injection, schedule: Q01DX009 (ip), vehicle: Klucel (hydroxypropylcellulose) (HPC)): 114 % of control
- T/C (dose: 12.5 mg/kg/injection, schedule: Q01DX009 (ip), vehicle: Klucel (hydroxypropylcellulose) (HPC)): 109 % of control
- T/C (dose: 25.0 mg/kg/injection, schedule: Q01DX009 (ip), vehicle: Klucel (hydroxypropylcellulose) (HPC)): 116 % of control
